Experimental data published in publication PMC12775434, “Ultra-large virtual screening unveils potent agonists of the neuromodulatory orphan receptor GPR139” (Nature Communications, 2025).
Values joined by “and” are separate entries in the source; they are usually repeats but may differ in a detail not shown here. Equal values may be shown once.

Key:
Assay type in all cases: cell-based
[1] = molecular target: T1, human muscarinic acetylcholine M1 receptor (M1R) (Homo sapiens, UniProt P11229); experiment: Ca2+ mobilization counter-screen in M1R-CHOk1 cells; conditions: individual replicates (Supplementary Figure 2);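 note: 10 µM test compound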
T1 sequence (P11229 1-460): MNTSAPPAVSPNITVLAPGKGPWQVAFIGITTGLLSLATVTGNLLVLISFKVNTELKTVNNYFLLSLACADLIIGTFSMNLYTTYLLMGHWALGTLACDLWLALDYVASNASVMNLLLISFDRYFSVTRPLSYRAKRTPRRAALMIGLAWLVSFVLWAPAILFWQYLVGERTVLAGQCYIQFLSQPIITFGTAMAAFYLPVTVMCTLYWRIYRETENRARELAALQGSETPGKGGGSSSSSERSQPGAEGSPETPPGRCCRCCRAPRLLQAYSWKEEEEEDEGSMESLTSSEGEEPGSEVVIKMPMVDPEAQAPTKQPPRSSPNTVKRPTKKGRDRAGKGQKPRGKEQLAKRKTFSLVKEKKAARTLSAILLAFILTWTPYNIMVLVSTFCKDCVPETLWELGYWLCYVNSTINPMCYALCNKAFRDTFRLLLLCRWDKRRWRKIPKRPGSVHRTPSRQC
Procedure, shortened: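 Fluorescence (ex 485 nm, em 525 nm) recorded at 37 °C after automated compound addition to CHO-K1 cells stably expressing M1R. Cells were dye-loaded with 2 µM Fluo-4 AM for 1 h at 37 °C, with 2.5 mM probenecid present; final DMSO at most 0.3%.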

GPR139 [2] = molecular target: T2, GPR139 (Homo sapiens, UniProt Q6DWJ6); experiment: Ca2+ mobilization assay, antagonist mode (EC80 800 nM Lundbeck Cmp 1a after 20 min preincubation), GPR139-CHOk1; conditions: individual replicates (Supplementary Figure 1)
T2 sequence (Q6DWJ6 1-353): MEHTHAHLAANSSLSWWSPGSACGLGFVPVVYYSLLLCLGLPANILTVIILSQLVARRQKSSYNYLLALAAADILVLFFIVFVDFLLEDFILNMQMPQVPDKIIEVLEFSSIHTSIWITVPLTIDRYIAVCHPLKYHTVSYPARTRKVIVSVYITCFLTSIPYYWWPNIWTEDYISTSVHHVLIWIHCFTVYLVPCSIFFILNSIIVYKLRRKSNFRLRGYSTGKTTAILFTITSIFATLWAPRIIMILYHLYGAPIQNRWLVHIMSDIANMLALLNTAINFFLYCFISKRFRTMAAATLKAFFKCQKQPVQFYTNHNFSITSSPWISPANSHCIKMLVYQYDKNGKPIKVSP
Procedure, shortened: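 Antagonist mode: 800 nM (EC80) reference agonist Lundbeck Cmp 1a added following 20 min pre-incubation with 10 µM compound. GPR139-CHOk1 cells, Fluo-4 dye, probenecid-containing HEPES buffer pH 7.4; intracellular Ca2+ measured at 37 °C (ex 485, em 525 nm).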

GPR139 [3] = molecular target: T2, GPR139; experiment: Ca2+ mobilization assay, agonist mode, stable GPR139-CHOk1 cell line; conditions: for activation of GPR139 at three concentrations: 0.1, 1 and 10 µM, activity too low to reliably determine EC50
Procedure, shortened: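 Agonist activity of compounds is assessed in stably transfected CHO-K1 cells using the calcium dye Fluo-4 at 37 °C in HEPES-buffered HBSS (pH 7.4). Efficacy is expressed relative to the reference agonist Lundbeck Cmp 1a, set as 100%.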

[4] = 0.1 µM, individual replicates (Supplementary Figure 3)
[5] = 1 µM, individual replicates (Supplementary Figure 3)
[6] = 10 µM, individual replicates (Supplementary Figure 3)
[7] = Agonist mode, individual replicates (Supplementary Figure 1)
[8] = primary screen, 10 µM compound, agonist mode, three columns = independent experiments

| Structure (SMILES) | Ca2+ signal (% of Carbachol) [1] | Ca2+ signal (% of Cmp 1a) (GPR139 [2]) | Ca2+ signal (% of Cmp 1a) (GPR139 [3]; [4]) | Ca2+ signal (% of Cmp 1a) (GPR139 [3]; [5]) | Ca2+ signal (% of Cmp 1a) (GPR139 [3]; [6]) | activation of GPR139 at three concentrations (GPR139 [3]) | Ca2+ signal (% of Cmp 1a) (GPR139 [3]; [7]) | Ca2+ signal (% of Cmp 1a) (GPR139 [3]; [8]) |
| --- | --- | --- | --- | --- | --- | --- | --- | --- |
| O=C(NCc1ccc(Cl)o1)N1CCCc2ccccc2C1 [Compound 7, ClC1=CC=C(CNC(=O)N2CCCC=3C=CC=CC3C2)O1] | -10 % of Carbachol and -18 % of Carbachol | 37.7665 % of Cmp 1a and 52.8581 % of Cmp 1a and 40.8806 % of Cmp 1a | 16.2 % of Cmp 1a and 6.0 % of Cmp 1a | 2.4 % of Cmp 1a and 4.1 % of Cmp 1a | 22.7 % of Cmp 1a and 24.5 % of Cmp 1a | concentration-dependent activation of GPR139 | 44 % of Cmp 1a and 39 % of Cmp 1a and 33 % of Cmp 1a | 44 % of Cmp 1a and 39 % of Cmp 1a and 33 % of Cmp 1a |
| C[C@H](NC(=O)c1ccc(Cn2cc(Cl)cn2)o1)c1ccccc1 [Compound 8, C[C@H](NC(=O)C1=CC=C(CN2C=C(Cl)C=N2)O1)C=3C=CC=CC3] | -17 % of Carbachol and 6 % of Carbachol | 48.2832 % of Cmp 1a and 57.355 % of Cmp 1a and 45.2011 % of Cmp 1a | -2.0 % of Cmp 1a and -2.7 % of Cmp 1a | 3.0 % of Cmp 1a and 3.4 % of Cmp 1a | 24.4 % of Cmp 1a and 22.7 % of Cmp 1a | – | 47 % of Cmp 1a and 45 % of Cmp 1a and 51 % of Cmp 1a | 47 % of Cmp 1a and 45 % of Cmp 1a and 51 % of Cmp 1a |
| CN1CC(=O)N(c2cccc(NC(=O)C3Cc4ccccc43)c2)C1=O (stereo not shown) [Compound 9, CN1CC(=O)N(C1=O)C=2C=CC=C(NC(=O)C3CC=4C=CC=CC34)C2] | -9 % of Carbachol and -19 % of Carbachol | 73.6349 % of Cmp 1a and 73.421 % of Cmp 1a and 97.2374 % of Cmp 1a | -6.9 % of Cmp 1a and -8.5 % of Cmp 1a | -0.2 % of Cmp 1a and -5.2 % of Cmp 1a | 18.7 % of Cmp 1a and 14.1 % of Cmp 1a | – | 25 % of Cmp 1a and 10 % of Cmp 1a and 48 % of Cmp 1a | – |
| C[C@H](NC(=O)CN(CC1CC1)C(=O)OC(C)(C)C)c1ccccc1 [Compound 10, C[C@H](NC(=O)CN(CC1CC1)C(=O)OC(C)(C)C)C=2C=CC=CC2] | 3.79 % of Carbachol and -10 % of Carbachol | 34.852 % of Cmp 1a and 42.0733 % of Cmp 1a and 46.5676 % of Cmp 1a | -1.5 % of Cmp 1a and 11.5 % of Cmp 1a | 2.4 % of Cmp 1a and 6.6 % of Cmp 1a | 39.5 % of Cmp 1a and 47.6 % of Cmp 1a | concentration-dependent activation of GPR139 | 58 % of Cmp 1a and 64 % of Cmp 1a and 72 % of Cmp 1a | 58 % of Cmp 1a and 64 % of Cmp 1a and 72 % of Cmp 1a |
| CN(Cc1cc(Cl)cn1C)C(=O)CCC(=O)c1cccs1 [Compound 11, CN(CC1=CC(Cl)=CN1C)C(=O)CCC(=O)C2=CC=CS2] | -4 % of Carbachol and 17 % of Carbachol | 63.3528 % of Cmp 1a and 60.457 % of Cmp 1a and 64.2066 % of Cmp 1a | 1.5 % of Cmp 1a and 12.7 % of Cmp 1a | -6.5 % of Cmp 1a and 1.1 % of Cmp 1a | 13.9 % of Cmp 1a and 12.8 % of Cmp 1a | – | 40 % of Cmp 1a and 30 % of Cmp 1a and 33 % of Cmp 1a | 40 % of Cmp 1a and 30 % of Cmp 1a and 33 % of Cmp 1a |
| CC(NC(=O)C1CCN(c2cccc(Cl)c2)C1=O)c1ccsc1 (stereo not shown) [Compound 12, CC(NC(=O)C1CCN(C1=O)C=2C=CC=C(Cl)C2)C=3C=CSC3] | -6.54 % of Carbachol and -0.0404 % of Carbachol | 56.3731 % of Cmp 1a and 71.421 % of Cmp 1a and 56.1991 % of Cmp 1a | -2.8 % of Cmp 1a and 0.3 % of Cmp 1a | -0.458 % of Cmp 1a and 0.235 % of Cmp 1a | 12.7 % of Cmp 1a and 12.3 % of Cmp 1a | – | 45 % of Cmp 1a and 20 % of Cmp 1a and 39 % of Cmp 1a | – |
| O=C(NC1CC12CCCC2)C1CCCN(c2ccccc2)C1=O (stereo not shown) [Compound 13, O=C(NC1CC21CCCC2)C3CCCN(C3=O)C=4C=CC=CC4] | -12 % of Carbachol and -1.24 % of Carbachol | 67.15 % of Cmp 1a and 66.5231 % of Cmp 1a and 65.9874 % of Cmp 1a | -0.35 % of Cmp 1a and -3.4 % of Cmp 1a | 5.0 % of Cmp 1a and -6.6 % of Cmp 1a | 18.4 % of Cmp 1a and -6.0 % of Cmp 1a | – | 47 % of Cmp 1a and 33 % of Cmp 1a and 40 % of Cmp 1a | 47 % of Cmp 1a and 33 % of Cmp 1a and 40 % of Cmp 1a |
| CCOc1ccc(C(=O)OCC(=O)N[C@H](C)c2ccccc2)cc1 [Compound 14, CCOC=1C=CC(=CC1)C(=O)OCC(=O)N[C@H](C)C=2C=CC=CC2] | -14 % of Carbachol and 13 % of Carbachol | 75.8591 % of Cmp 1a and 82.1128 % of Cmp 1a and 79.0278 % of Cmp 1a | 1.0 % of Cmp 1a and -0.9 % of Cmp 1a | -7.4 % of Cmp 1a and 2.7 % of Cmp 1a | 15.1 % of Cmp 1a and 12.7 % of Cmp 1a | – | 37 % of Cmp 1a and 14 % of Cmp 1a and 31 % of Cmp 1a | – |
